Measurements: patent publication US20210338647A1, “Combination of Acetylcholinesterase Inhibitor and 5-HT4 Receptor Agonist As Neuroprotective Agent In the Treatment of Neurodegenerative Diseases” (UNIVERSITE DE CAEN NORMANDIE, priority 2018, published 2021)
Marks after values point to notes of the source that are not given here.

How the values were obtained:
[1] = system: rat primary hippocampal neurons injured with Aβ 1-42; assay: Survival of MAP-2 neurons in primary culture of hippocampal neurons injured with Aβ 1-42; assay type: cell-based; details: for Survival: Aβ1-42 20 μM/2.5 μM, percentage of control, Example 3
Protocol: (§1) Rat hippocampal neurons were cultured as described by Callizot et al. (2013) J. Neurosci. Res. 91706-716. Pregnant female rats of 17 days gestation (Rats Wistar; Janvier Labs France) were killed using a deep anesthesia with CO2 chamber followed by a cervical dislocation. Then, fetuses were removed from the uterus and immediately placed in ice-cold L15 Leibovitz medium with a 2% penicillin (10,000 U/ml) and streptomycin (10 mg/ml) solution (PS) and 1% bovine serum albumin (BSA). Hippocampal neurons were treated for 20 min at 37° C. with a trypsin-EDTA solution at a final concentration of 0.05% trypsin and 0.02% EDTA. The dissociation was stopped by adding Dulbecco's modified Eagle's medium (DMEM) with 4.5 g/l of glucose, containing DNAse I grade 11 (final concentration 0.5 mg/ml) and 10% fetal calf serum (FCS). Cells were mechanically dissociated by three forced passages through the tip of a 10-ml pipette and then centrifuged at 515×g for 10 min at 4° C. The supernatant was discarded, and the pellet was resuspended in a defined culture medium consisting of Neurobasal medium with a 2% solution of B27 supplement, 2 mmol/l of L-glutamine, 2% of PS solution, and 10 ng/ml of brain-derived neurotrophic factor (BDNF). Viable cells were counted in a Neubauer cytometer, using the trypan blue exclusion test. […] The medium was changed every 2 days.
The hippocampal neurons were exposed with Aβ solutions (see below) after 17 days of culture. The Aβ1-42 preparation was done following the procedure described by Callizot et al. (2013) J. Neurosci. Res. 91706-716. Briefly, Aβ1-42 peptide was dissolved in the defined culture medium mentioned above, at an initial concentration of 40 μM. This solution was gently agitated for 3 days at 37° C. in the dark and immediately used after being properly diluted in culture medium to the concentrations used (20 μM (plate 1) or 2.5 μM (plate 2) corresponding to 2 μM or 0.25 μM of oligomers (AβO) respectively). […]
The compound was preincubated one hour before […] application. The following conditions were assessed:
(§2) After permeabilization with 0.1% of saponin, cells were incubated for 2 h with:
a) chicken polyclonal antibody anti microtubule-associated-protein 2 (MAP-2), diluted at 1/1000 in PBS containing 1% fetal calf serum and 0.1% of saponin (this antibody allows the specific staining of neuronal cell bodies and neurites; and allow the study of neuronal cell death and neurite network).
For each condition, 30 pictures (representative of the whole well area) per well were taken using ImageXpress (Molecular Devices) at 20× magnification. All images were taken with the same acquisition parameters. Analyses were performed automatically by using Custom Module Editor (Molecular Devices).
Total number of neurons (neuron survival, number of MAP-2 positive neurons)
Rat hippocampal neurons were cultured as described by Callizot et al. (2013) J. Neurosci. Res. 91:706-716. Briefly, pregnant female rats of 17 days gestation (Rats Wistar; Janvier Labs France) were killed using a deep anesthesia with CO2 chamber and a cervical dislocation. Then, fetuses were removed from the uterus and immediately placed in ice-cold L15 Leibovitz medium with a 2% penicillin (10,000 U/ml) and streptomycin (10 mg/ml) solution (PS) and 1% bovine serum albumin (BSA). The hippocampi were treated for 20 min at 37° C. with a trypsin-EDTA solution at a final concentration of 0.05% trypsin and 0.02% EDTA.

[2] = system: rat primary hippocampal neurons injured with Aβ 1-42; assay: Number of synapses (PSD95/SYN overlap) in primary culture of hippocampal neurons injured with Aβ 1-42; assay type: cell-based; details: for Synapses: Aβ1-42 20 μM/2.5 μM, percentage of control, Example 3
Protocol: as §1
The hippocampal neurons were exposed with Aβ solutions (see below) after 17 days of culture. The Aβ1-42 preparation was done following the procedure described by Callizot et al. (2013) J. Neurosci. Res. 91706-716. Briefly, Aβ1-42 peptide was dissolved in the defined culture medium mentioned above, at an initial concentration of 40 μM. This solution was gently agitated for 3 days at 37° C. in the dark and immediately used after being properly diluted in culture medium to the concentrations used (20 μM (plate 1) or 2.5 μM (plate 2) corresponding to 2 μM or 0.25 μM of oligomers (AβO) respectively).
Donecopride fumarate was solved in culture medium and preincubated 1 h before Aβ application. Aβ1-42 preparation was added to a final concentration of 20 or 2.5 μM (=2 μM or 0.25 μM of AβO, evaluated by automatic Western Blot) diluted in control medium in presence of Donecopride.
Donecopride fumarate (Donecopride) was tested on one culture in a 96 well plate (6 wells per conditions). The compound was preincubated one hour before […] application. The following conditions were assessed:
as §2
a) mouse monoclonal antibody anti post synaptic density 95 kDa (PSD95) at a dilution of 1/100 in PBS containing 1% fetal calf serum and 0.1% of saponin.
b) Rabbit polyclonal antibody anti-synaptophysin (SYN) at the dilution of 1/100 in PBS containing 1% fetal calf serum and 0.1% of saponin.
For each condition, 40 pictures per well were taken using ImageXpress (Molecular Devices) with 40× magnification. All images were taken with the same acquisition parameters.
Synapses evaluation was performed automatically by using Custom module editor (Molecular Devices).
Total number of synapses (overlapping between PSD95/SYN).
To assess the formation of synapses, the distribution of PSD-95, a post-synaptic marker, and synaptophysin, a pre-synaptic marker, was studied. A structure positive for both PSD-95 and synaptophysin staining was considered as a synapse.
Rat hippocampal neurons were cultured as described by Callizot et al. (2013) J. Neurosci. Res. 91:706-716.

5XFAD mice [3] = assay: Novel object recognition test in chronically treated 5XFAD mice; assay type: in vivo, mouse; details: 5XFAD females; 1 mg/kg twice a week for 3 months; 24 h interval between training and test
Protocol: (§3) 5XFAD mice received chronic treatments with drugs or vehicle according to 2 different protocols. In each experiment, drugs or vehicle solution were administered i.p. twice a week (1 mg/kg). In “Protocol 1”, mice (n=6-7 mice per group) were treated with compounds for two months, from 2 to 4 months of age. In “Protocol 2”, mice (n=7) were treated with compounds for three months, from 1 month to 4 months of age. At the end of each protocol, mice were anesthetized with a mixture of 100 mg/kg ketamine and 10 mg/kg xylazine in saline solution and perfused transcardially with PBS. Brains were quickly isolated on ice, the olfactory bulbs and cerebellum removed and the two hemispheres divided. One hemisphere was frozen on dry ice and stored at −80° C. for biochemical analysis, while the other was post-fixed in 4% PFA for immunohistochemistry (IHC).
(§4) 28 female 5XFAD mice (C57BL/6J genetic background) were used in this study. Mice received vehicle or compounds (1 mg/kg) i.p., twice a week for three months, from 1 to 4 months of age.

5XFAD mice [4] = assay: Aβ42 concentration in cerebrospinal fluid of chronically treated 5XFAD mice; assay type: in vivo, mouse; details: 1 mg/kg twice a week for 3 months, versus controls
Protocol: as §3, §4

[5] = Aβ 1-42 injured hippocampal neurons, Example 3 step 1

COc1cc2c(cc1OC)C(=O)C(CC1CCN(Cc3ccccc3)CC1)C2 (stereo not shown) [Donepezil]
Lowest active dose in this model ([1]; Aβ 1-42 injured hippocampal neurons, any parameter of Table 7): 1 nM | Survival ([1]; donepezil 100 pM): 69% | Survival ([1]; donepezil 1 nM): 75%* | Survival ([1]; donepezil 10 nM): 86%* | Survival ([1]; donepezil 50 nM): 91%* | Survival ([1]; donepezil 100 nM): 90%* | Survival ([1]; donepezil 500 nM): 86%* | Survival ([1]; donepezil 1 μM): 85%* | Survival ([1]; donepezil 10 μM): 85%* | Number of synapses normalized by the number of neurons (formation of new synapses) ([2]; Donepezil 1 μM, Aβ 1-42 injured hippocampal neurons, Example 1): had no effect | Synapses ([2]; donepezil 100 pM): 68% | Synapses ([2]; donepezil 1 nM): 72% | Synapses ([2]; donepezil 10 nM): 81%* | Synapses ([2]; donepezil 50 nM): 84%* | Synapses ([2]; donepezil 100 nM): 87%* | Synapses ([2]; donepezil 500 nM): 90%* | Synapses ([2]; donepezil 1 μM): 91%* | Synapses ([2]; donepezil 10 μM): 93%*

CCCCN1CCC(CCC(=O)c2cc(Cl)c(N)cc2OC)CC1 [RS67333, 1-(4-amino-5-chloro-2-methoxy-phenyl)-3-(1-butyl-4-piperidinyl)-1-propanone]
Lowest protective active dose: neuronal survival [1, 5]: 50 nM | Recognition memory: time exploring novel versus familiar object (NOR test) (5XFAD mice [3]): reverses cognitive impairment | Lowest protective active dose: synapse [2, 5]: 1 µM | Aβ42 concentration in cerebrospinal fluid (CSF) (5XFAD mice [4]): not significantly different compared to controls
